Measurements published in US5002948A, “3-[4-[4-substituted-1-piperazinyl]-1-butyl]-1H-2,3-dihydroindoles” (H. Lundbeck A/S, priority 1988, dated 1991).

How the values were obtained:
5-HT1A = molecular target: T1, 5-HT1A (Rattus norvegicus, UniProt P19327); test: Generalization to discriminative stimulus properties induced by 8-OHDPAT in rats (agonism); assay type: in vivo, Male Wistar rats; set-up: from tissue; host or cells: whole living animal, male Wistar rats, s.c. dosing; settings: usually 30 or 45 min before test, substituted for 8-OHDPAT, per cent drug response; for ED50: rat, sc, read-out: ED50, 8-OH DPAT cue agonism
T1 sequence (P19327 1-422): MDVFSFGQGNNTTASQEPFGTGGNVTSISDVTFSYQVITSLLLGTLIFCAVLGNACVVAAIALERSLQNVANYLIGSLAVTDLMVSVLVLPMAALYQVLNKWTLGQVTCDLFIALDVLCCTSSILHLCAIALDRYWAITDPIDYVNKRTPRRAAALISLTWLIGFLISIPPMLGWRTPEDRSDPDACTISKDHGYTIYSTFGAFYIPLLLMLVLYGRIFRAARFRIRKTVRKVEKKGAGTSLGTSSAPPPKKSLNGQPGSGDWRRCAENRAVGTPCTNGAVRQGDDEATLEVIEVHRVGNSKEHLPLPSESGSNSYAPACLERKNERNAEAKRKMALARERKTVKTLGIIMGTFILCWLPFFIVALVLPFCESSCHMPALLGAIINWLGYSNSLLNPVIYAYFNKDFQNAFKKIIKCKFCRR
From the text: GENERALIZATION TO DISCRIMINATIVE STIMULUS PROPERTIES INDUCED BY 8-OHDPAT IN RATS.
This test model is used to determine the agonist effects of a test compound on 5-HT1A receptors in vivo. A related method is described by Tricklebank, M. D., J. Neill, E. J. Kidd and J. R. Fozard, Eur. J. Pharmacol. 133, 37-56, 1987; Arnt, J., Pharmacology & Toxicology 64, 165-172, 1989.
The procedure is the same as for the antagonism test mentioned above, except that the test compound is substituted for 8-OHDPAT and injected s.c. usually 30 minutes or 45 minutes respectively before beginning of the test.
The per cent drug response obtained for each dose of test compound is used to calculate ED50 values by log-probit analysis.

[1] = molecular target: T2, serotonin 5-HT1A receptors (Rattus norvegicus, UniProt P19327); test: Inhibition of 3H-8-OHDPAT binding to serotonin 5-HT1A receptors in rat brain in vitro; settings: 3H-8-OHDPAT 1 nM, rat brain membranes minus cerebellum, 37° C., 15 min; read-out: IC50 (3H 8-OH DPAT binding)
T2 construct: membranes from rat brain minus cerebellum; from tissue; host or cells: brain minus cerebellum of male Wistar (Mol:Wist) rats, membranes
T2 sequence (P19327 1-422): T1 sequence (P19327 1-422)
Procedure: INHIBITION OF ^3 H-8-OHDPAT BINDING TO SEROTONIN 5-HT1A RECEPTORS IN A RAT BRAIN IN VITRO
By this method the inhibition by drugs of the binding of ^3 H-8-OHDPAT (1 nM) to serotonin 5-HT1A receptors in membranes from rat brain minus cerebellum is determined in vitro.
Male Wistar (Mol:Wist) rats (125-250 g) are sacrificed and the brain is dissected and weighed. The brain tissue minus cerebellum is homogenized (Ultra Turrax, 20 sec) in 10 ml of ice cold 50 mM Tris buffer pH 8.0 (at 25° C.) containing 120 mM NaCl, 4 mM CaCl2 and 4 mM MgCl2. The homogenate is centrifuged at 20,000 g for 10 min at 4° C. The pellet is homogenized in 10 ml of buffer and incubated at 37° C. for 10 min. The homogenate is centrifuged as above and the pellet is homogenized in 100 vol (w/v) ice cold buffer containing 10 μ M of parglyine.
Incubation tubes kept on ice in triplicate receive 100 μl of drug solution in water (or water for total binding) and 1000 μ l of tissue suspension (final tissue content corresponds to 10 mg original tissue). The binding experiment is initiated by addition of 100 μ l of ^3 H-8-OHDPAT (final concentration 1 nM) and by placing the tubes in a 37° C. water bath. After incubation for 15 min the samples are filtered under vacuum (0-50 mBar) through Whatman GF/F filters ([…]). The tubes are rinsed with 5 ml ice cold 0.9% NaCl which are then poured on the filters. Thereafter, the filters are washed with 2×5 ml 0.9% NaCl. The filters are placed in counting vials and 4 ml of appropriate scintillation fluid (e.g. Picofluor™15) are added. After shaking for 1 h and storage 2 h in the dark the content of radioactivity is determined by liquid scintillation counting. Specific binding is obtained by subtracting the nonspecific binding in the presence of 10 μ M of 5-HT.
For determination of the inhibition of binding five concentrations of drugs covering 3 decades are used.
The IC50 -value is determined as the concentration, at which the binding is 50% of the total binding in control samples minus the nonspecific binding in the presence of 10 μM of 5-HT.
^3 H-8-OHDPAT from Amersham International plc. England. Specific activity approximately 200 Ci/mmol).

Row | SMILES | ED50 (5-HT1A) | IC50 [1] | ED50, 8-OH DPAT cue agonism (5-HT1A; s.c.)
1 | COc1ccccc1N1CCN(CCCCC2CNc3ccccc32)CC1 (single isomer, unassigned; (+)) [Compound 7a, (+)-3-[4-[4-(2-methoxyphenyl)-1-piperazinyl]-1-butyl]-1H-2,3-dihydroindole] | > 6.8 µmol/kg | 13 nM | –
2 | COc1ccccc1N1CCN(CCCCC2CNc3ccccc32)CC1 (stereo not drawn) [Compound 3a, 3-[4-[4-(2-methoxyphenyl)-1-piperazinyl]-1-butyl]-1H-2,3-dihydroindole] | > 9.2 µmol/kg | 14 nM | –
3 | c1ccc2c(c1)NCC2CCCCN1CCN(c2cccc3c2OCCO3)CC1 (stereo not drawn) [Compound 3j, 3-[4-[4-(1,4-benzodioxan-5-yl)-1-piperazinyl]-1-butyl]-1H-2,3-dihydroindole] | > 4.4 µmol/kg | 3.3 nM | –
4 | COc1ccccc1N1CCN(CCCCC2CNc3ccccc32)CC1 (single isomer, unassigned; (-)) [Compound 7b, (-)-3-[4-[4-(2-methoxyphenyl)-1-piperazinyl]-1-butyl]-1H-2,3-dihydroindole] | – | 8.6 nM | > 3.4 µmol/kg
5 | CCOc1ccccc1N1CCN(CCCCC2CNc3ccccc32)CC1 (stereo not drawn) [Compound 3c, 3-[4-[4-(2-ethoxyphenyl)-1-piperazinyl]-1-butyl]-1H-2,3-dihydroindole] | > 26 µmol/kg | 11 nM | –
6 | c1ccc2c(c1)NCC2CCCCN1CCN(c2cccc3c2OCC3)CC1 (stereo not drawn) [Compound 3i, 3-[4-[4-(2,3-dihydro-7-benzofuranyl)-1-piperazinyl]-1-butyl]-1H-2,3-dihydroindole] | 2.7 µmol/kg | 9.4 nM | –
